Several values for one entry are separate records, joined by “and”; a condition that tells them apart may be missing. Equal values may be shown once. Read-outs that look alike come from different tables or passages of the source.
Columns and labels:
MIOX from hog kidney = target: T1, MIOX from hog kidney (Sus scrofa, UniProt Q8WN98); conditions: cited from earlier work; for inhibition of MIOX from hog kidney in vitro: reported (30, 31); for inhibition of MIOX activity: at high concentrations, reported previously (30, 31)
T1 sequence (Q8WN98 1-282): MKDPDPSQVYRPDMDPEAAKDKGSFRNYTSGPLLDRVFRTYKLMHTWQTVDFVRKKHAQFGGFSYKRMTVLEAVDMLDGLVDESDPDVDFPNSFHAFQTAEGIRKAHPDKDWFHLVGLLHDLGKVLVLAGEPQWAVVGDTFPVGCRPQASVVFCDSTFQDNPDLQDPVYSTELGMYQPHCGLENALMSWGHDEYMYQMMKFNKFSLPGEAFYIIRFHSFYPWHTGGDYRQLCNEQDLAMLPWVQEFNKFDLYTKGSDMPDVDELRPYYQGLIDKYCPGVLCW

[1] = target: T2, uronate dehydrogenase from P. syringae (Pseudomonas syringae pv. tomato, UniProt Q888H1); assay: Kinetic analysis of purified Udh (initial NADH generation at 340 nm); type: biochemical, Pseudomonas syringae pv. tomato str. DC3000; conditions: purified 6×His Udh, 0 to 10 mM substrate, 1.2 mM NAD^+
T2 construct: 6xHis (C); made in house; host or cells: E. coli BL21 (DE3)
T2 sequence (Q888H1 whole entry): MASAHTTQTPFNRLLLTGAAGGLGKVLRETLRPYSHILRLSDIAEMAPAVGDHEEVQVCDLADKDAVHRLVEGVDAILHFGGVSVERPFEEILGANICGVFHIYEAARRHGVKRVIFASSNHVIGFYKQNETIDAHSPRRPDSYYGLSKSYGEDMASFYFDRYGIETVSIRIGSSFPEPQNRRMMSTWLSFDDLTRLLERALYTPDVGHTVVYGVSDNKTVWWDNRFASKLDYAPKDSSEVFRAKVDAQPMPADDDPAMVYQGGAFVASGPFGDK
Method: (§1) The udh genes from genomic DNA of A. tumefaciens, P. putida, and P. syringae were amplified using primers ATuEQ-F/R, PPuEQ-F/R, and PSuEQ-F/R as listed in Table 4. The PCR products were digested with SacI and HindIII and inserted into the same sites of pET21b containing a 6×His-Tag to construct pETATu, pETPPu, and pETPSu, respectively (Table 4). These plasmids were used to transform E. coli BL21 (DE3) to use for protein expression. The recombinant E. coli BL21 strains were cultivated at 30° C., 250 rpm for 6 hours after IPTG induction. Protein purification was carried out using the ProBond™ Purification System as described by the manufacturer (Invitrogen Corp, Carlsbad, Calif., USA). SDS-PAGE (sodium dodecyl sulfate-polyacrylamide gel electrophoresis) was performed as described in Sambrook et. al. (35). Enzyme activities on substrates of purified proteins were measured by monitoring initial NADH generation at 340 nm and room temperature. Kinetic analysis on glucuronate and galacturonate was carried out using 0 to 10 mM glucuronate or galacturonate and 1.2 mM NAD^+ in 100 mM Tris-HCl, pH 8.0. Kinetic analysis on NAD^+ was performed using 0 to 2 mM NAD^+ and 10 mM glucuronate in 100 mM Tris-HCl, pH 8.0. A series of enzymatic assays were conducted to estimate the initial activity as a function of starting substrate concentration. […] Nonlinear least-squares regression analyses were performed via the Gauss-Newton method as implemented using the intrinsic Matlab® function nlinfit.

[2] = target: T3, uronate dehydrogenase from P. putida (Pseudomonas putida, UniProt Q88NN6); assay: as above; type: biochemical, Pseudomonas putida KT2440; conditions: purified 6×His Udh, 0 to 10 mM substrate, 1.2 mM NAD^+
T3 construct: 6xHis (C); made in house; host or cells: E. coli BL21 (DE3)
T3 sequence (Q88NN6 whole entry): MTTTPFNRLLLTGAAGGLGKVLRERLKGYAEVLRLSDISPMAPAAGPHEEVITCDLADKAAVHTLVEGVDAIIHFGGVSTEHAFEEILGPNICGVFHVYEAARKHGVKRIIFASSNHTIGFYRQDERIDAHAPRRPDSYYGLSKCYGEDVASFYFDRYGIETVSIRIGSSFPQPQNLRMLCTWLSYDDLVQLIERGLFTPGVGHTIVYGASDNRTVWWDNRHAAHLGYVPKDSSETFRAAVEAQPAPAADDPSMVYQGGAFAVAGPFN
Method: as §1

[3] = target: T4, uronate dehydrogenase from A. tumefaciens (Agrobacterium fabrum, UniProt Q7CRQ0); assay: as above; type: biochemical, Agrobacterium tumefaciens str. C58; conditions: for kcat / Km: purified 6×His Udh, 0 to 10 mM substrate, 1.2 mM NAD^+
T4 construct: 6xHis (C); made in house; host or cells: E. coli BL21 (DE3)
Method: as §1

[4] = target: T5, uronate dehydrogenase (Udh) of P. syringae (Pseudomonas syringae pv. tomato, UniProt Q888H1); assay: Udh activity in crude E. coli lysates (NADH generation at 340 nm); type: biochemical; conditions: crude E. coli lysates containing the P. syringae udh gene; data not shown
T5 construct: made in house; host or cells: E. coli (DH10B or BL21(DE3)); crude lysate, not purified
T5 sequence (Q888H1 whole entry): as the sequence (Q888H1 whole entry) above
Method: Assays for uronate dehydrogenase activity were performed by monitoring NADH co-factor generation at 340 nm as described previously (35, 40). The reaction mixture contained 100 mM sodium phosphate buffer (pH 8.0), 2.5 mM glucuronic acid, 0.9 mM NAD^+, and bacterial lysate prepared as described above.
Bacterial lysates for enzymatic analysis were prepared by the freeze-thaw method. E. coli strains harboring udh genes were grown overnight in LB medium containing 0.1 mM IPTG (Isopropyl β-D-1-thiogalactopyranoside). Pellets were re-suspended in 1 mg/mL lysozyme solution and incubated on ice for 30 min. The suspensions were frozen in liquid nitrogen then thawed in a 37° C. water bath. This step was repeated five times. Cell lysates were centrifuged at 14,000 rpm at 4° C. for 15 min, and the supernatant was used for enzymatic analysis. Udh activities on glucuronate were measured by monitoring NADH (nicotinamide adenine dinucleotide, reduced) generation at 340 nm (38). The reaction mixture was consisted of 2.5 mM glucuronate, 0.9 mM NAD^+ (nicotinamide adenine dinucleotide), and 100 mM sodium phosphate buffer. The reaction was initiated by the addition of lysate to the reaction mixture at room temperature, and monitored. […] The total protein concentration was determined using the Bradford method (Bradford (1976) Anal Biochem 72:248-54). […]

E. coli = E. coli growth and glucose consumption with added organic acid salts; type: cell-based, Escherichia coli; conditions: added at concentrations as high as 10 g/L; data not shown
[5] = Thermal stability of purified Udhs (30 minutes at temperature, then standard assay); type: physicochemical; conditions: purified Udh, FIG. 10b
Method: The impact of temperature was evaluated in two ways. First, the thermal stability was examined by exposing enzyme preparations to various temperatures for 30 minutes, then performing the enzyme assay under standard conditions. […] The activity remained near 80% of maximum after exposure of the A. tumefaciens preparation to 37° C., while the corresponding activities for both of the other enzymes was below 20% of maximum. The stability profiles for both Pseudomonas enzymes were similar to one another. Finally, enzyme activity was evaluated for assays conducted under increasing temperatures. These activities followed a general trend of increasing activity with increasing temperature between 4 and 42° C., which is consistent with an Arrhenius-type dependence of the catalytic rate constant on temperature (FIG. 10c).

[6] = 100 mM Tris-HCl pH 8.0, room temperature

For `O=C(O)[C@@H](O)[C@@H](O)[C@H](O)[C@@H](O)C(=O)O` [D-glucaric acid], the “inhibition of MIOX from hog kidney in vitro” value (“inhibition of MIOX … in vitro” below) (MIOX from hog kidney) is listed as “inhibited”.

For `O=C[C@H](O)[C@H]1OC(=O)[C@@H](O)[C@H]1O` [D-glucuronolactone], the “inhibition of MIOX … in vitro” value (MIOX from hog kidney) is given as “not”.

In the case of `[Fe+2]` [Fe^2+], the “inhibition of MIOX activity” value (MIOX from hog kidney) is given as “inhibited”.

In the case of `O=C(O)[C@H]1O[C@H](O)[C@H](O)[C@@H](O)[C@H]1O` [Galacturonate, galacturonate], the kcat [1, 6] is reported as 24 ± 1 s⁻¹ and 24.02 ± 0.73 s⁻¹, the Km ([1]; pH 8.0) is reported as 40 µM and the kcat ([1]; pH 8.0) is reported as 0.2 ± 0.01 10^2 · 1/s. For the same molecule, the kcat [2, 6] was 30 ± 3 s⁻¹ and 30.08 ± 3.12 s⁻¹, the Km ([2]; pH 8.0) was 100 ± 60 µM and the kcat ([2]; pH 8.0) was 0.3 ± 0.03 10^2 · 1/s. The kcat [3, 6] was 92 ± 14 s⁻¹ and 91.85 ± 14.26 s⁻¹, the Km ([3]; pH 8.0) was 160 ± 120 µM and the kcat ([3]; pH 8.0) was 0.9 ± 0.14 10^2 · 1/s.

In the case of `O=C(O)[C@H]1O[C@@H](O)[C@H](O)[C@@H](O)[C@@H]1O` [Glucuronate, glucuronate], the “inhibition of MIOX … in vitro” value (MIOX from hog kidney) is listed as “not”, the kcat [1, 6] is listed as 74 ± 3 s⁻¹ and 73.77 ± 3.13 s⁻¹ and the Km ([1]; pH 8.0) is listed as 280 ± 70 µM. The kcat ([1]; pH 8.0) was 0.7 ± 0.03 10^2 · 1/s, the kcat [2, 6] was 55 ± 3 s⁻¹ and 54.57 ± 2.60 s⁻¹ and the Km ([2]; pH 8.0) was 250 ± 70 µM. For the same molecule, the kcat ([2]; pH 8.0) was 0.5 ± 0.03 10^2 · 1/s, the “kcat (highest rate constant)” value [3] was 190 s⁻¹ and the “kcat of A. tumefaciens enzyme relative to the Pseudomonas enzymes” value ([3]; glucuronate as substrate) was “more than 2 fold”. For the same molecule, the kcat [3, 6] was 194 ± 12 s⁻¹ and 193.90 ± 11.84 s⁻¹, the Km ([3]; pH 8.0) was 370 ± 120 µM and the kcat ([3]; pH 8.0) was 1.9 ± 0.12 10^2 · 1/s. For the same molecule, the “kcat (highest rate constant)” value ([3]; unit not given) was 1.9×10^2.

For `NC(=O)c1ccc[n+]([C@@H]2O[C@H](COP(=O)([O-])OP(=O)(O)OC[C@H]3O[C@@H](n4cnc5c(N)ncnc54)[C@H](OP(=O)(O)O)[C@@H]3O)[C@@H](O)[C@H]2O)c1` [NADP^+], the “utilization as a co-factor” value [4] was “not”.

For `NC(=O)c1ccc[n+]([C@@H]2O[C@H](COP(=O)([O-])OP(=O)(O)OC[C@H]3O[C@@H](n4cnc5c(N)ncnc54)[C@H](O)[C@@H]3O)[C@@H](O)[C@H]2O)c1` [NAD^+, nicotinamide adenine dinucleotide], the “utilization as a co-factor” value [4] was “utilized”.

For `N[C@@H](CS)C(=O)O` [cysteine], the “inhibition of MIOX activity” value (MIOX from hog kidney) is given as “inhibited”.

With `O=C([O-])[C@@H](O)[C@@H](O)[C@H](O)[C@@H](O)C(=O)[O-].[K+].[K+]` [potassium glucarate] the “E. coli growth and glucose consumption” value (E. coli) was “not observed to be affected”.

With `O=C[C@H](O)[C@@H](O)[C@H](O)[C@H](O)C(=O)[O-].[Na+]` [sodium glucuronate] the “E. coli growth and glucose consumption” value (E. coli) was “not observed to be affected”.

B1: A. tumefaciens Udh: 6×-His tagged uronate dehydrogenase from A. tumefaciens str. C58 (SEQ ID NO:24), expressed in E. coli and purified (protein, listed as Agrobacterium tumefaciens)
chain: MKRLLVTGAAGQLGRVMRERLAPMAEILRLADLSPLDPAGPNEECVQCDLADANAVNAMVAGCDGIVHLGGISVEKPFEQILQGNIIGLYNLYEAARAHGQPRIVFASSNHTIGYYPQTERLGPDVPARPDGLYGVSKCFGENLARMYFDKFGQETALVRIGSCTPEPNNYRMLSTWFSHDDFVSLIEAVFRAPVLGCPVVWGASANDAGWWDNSHLGFLGWKPKDNAEAFRRHITETTPPPDPNDALVRFQGGTFVDNPIFKQS
modifications: 6xHis tag
With B1 the “activity after exposure to 37° C. for 30 minutes” value [5] was ~80 % of maximum.

— patent publication US8835147B2, “Cellular production of glucaric acid through recombinant expression of uronate dehydrogenase and myo-inositol oxygenase” (Massachusetts Institute of Technology, priority 2008, dated 2014)
